Laboratory results as given in ChEMBL document CHEMBL3526005, “Pharmacokinetic and pharmacodynamic properties of cholinesterase inhibitors donepezil, tacrine, and galantamine in aged and young Lister hooded rats” (Drug Metab Dispos, 2011).
The source made the active and inactive calls. The rule behind the calls is not given here.

Key:
[1] = system: Rattus norvegicus; test: Inhibition of cholinesterase activity in 30 months-old Lister Hooded rat plasma assessed as percent enhancement of inhibition at 3 mg/kg, po after 1 hr treatment; type: organism-based; parameters: dose 3 mg/kg; scale not given: the % may be the effect or the level left
[2] = Ratio of brain to blood in 7 months-old Lister Hooded rat blood at 3 mg/kg, po after 1 hr treatment
[3] = Volume of distribution in 7 months-old Lister Hooded rat at 1 mg/kg, iv infusion for 1 hr; settings: in vivo
[4] = Half life in 7 months-old Lister Hooded rat at 1 mg/kg, iv infusion for 1 hr; settings: in vivo
[5] = Mean residence time in 7 months-old Lister Hooded rat at 1 mg/kg, iv infusion for 1 hr; settings: in vivo
[6] = Volume of distribution in 30 months-old Lister Hooded rat at 1 mg/kg, iv infusion for 1 hr; settings: in vivo
[7] = Half life in 30 months-old Lister Hooded rat at 1 mg/kg, iv infusion for 1 hr; settings: in vivo
[8] = Mean residence time in 30 months-old Lister Hooded rat at 1 mg/kg, iv infusion for 1 hr; settings: in vivo
[9] = system: Rattus norvegicus; test: Inhibition of cholinesterase activity in 7 months-old Lister Hooded rat plasma at 3 mg/kg, po after 1 hr treatment; type: organism-based; parameters: dose 3 mg/kg
[10] = Tmax in human at 2 mg, po single dose; settings: in vivo
[11] = Half life in human at 2 mg, po single dose; settings: in vivo
[12] = system: Homo sapiens; test: Volume of distribution in human at 2 mg, po single dose; settings: in vivo
[13] = Clearance in human at 2 mg, po single dose; settings: in vivo
[14] = Oral bioavailability in human at 2 mg single dose; settings: in vivo
[15] = Drug excretion in human urine assessed as unchanged drug level at 2 mg, po single dose; type: ADME, organism-based; settings: read-out: Drug excretion
[16] = organism: Rattus norvegicus; settings: in vivo, iv, 1 mg/kg, 1 h
[17] = organism: Rattus norvegicus; settings: in vivo, po, 3 mg/kg
[18] = organism: Rattus norvegicus; settings: in vivo, po, 3 mg/kg; remark: listed apart in the source
[19] = organism: Rattus norvegicus; settings: in vivo, iv, 1 mg/kg, 1 h; remark: listed apart in the source
[20] = organism: Rattus norvegicus; settings: in vivo, iv, 1 mg/kg, 1 h; remark: listed apart in the source
[21] = organism: Rattus norvegicus; settings: in vivo, po, 3 mg/kg; remark: listed apart in the source
[22] = organism: Rattus norvegicus; settings: in vivo, po, 3 mg/kg; remark: listed apart in the source
[23] = in vivo; settings: Lister Hooded, rat, brain, po, 3 mg/kg
Description: Ratio of brain to blood in 30 months-old Lister Hooded rat blood at 3 mg/kg, po after 1 hr treatment

[24] = in vivo; settings: Lister Hooded, rat, po, 3 mg/kg
[25] = in vivo; settings: Lister Hooded, rat, po, 3 mg/kg; remark: listed apart in the source
[26] = in vivo; settings: Lister Hooded, rat, po, 3 mg/kg; remark: listed apart in the source
[27] = in vivo; settings: Lister Hooded, rat, iv, 1 mg/kg
[28] = in vivo; settings: Lister Hooded, rat, iv, 1 mg/kg; remark: listed apart in the source
[29] = in vivo; settings: Lister Hooded, rat, po, 3 mg/kg; remark: listed apart in the source
[30] = in vivo; settings: Lister Hooded, rat, po, 3 mg/kg; remark: listed apart in the source
[31] = in vivo; settings: Lister Hooded, rat, po, 3 mg/kg; remark: listed apart in the source
[32] = in vivo; settings: Lister Hooded, rat, iv, 1 mg/kg; remark: listed apart in the source
[33] = in vivo; settings: Lister Hooded, rat, iv, 1 mg/kg; remark: listed apart in the source
[34] = Drug uptake in 7 months-old Lister Hooded rat blood at 3 mg/kg, po after 1 hr treatment; settings: in vivo
[35] = Drug uptake in 7 months-old Lister Hooded rat assessed as corrected brain concentration at 3 mg/kg, po after 1 hr treatment; settings: in vivo
[36] = Drug uptake in 30 months-old Lister Hooded rat blood at 3 mg/kg, po after 1 hr treatment; settings: in vivo
[37] = Drug uptake in 30 months-old Lister Hooded rat assessed as corrected brain concentration at 3 mg/kg, po after 1 hr treatment; settings: in vivo
[38] = organism: Rattus norvegicus; settings: in vivo, iv, 1 mg/kg, 1 h; remark: listed apart in the source
[39] = Plasma protein binding in human at 2 mg, po single dose; settings: in vivo
[40] = Drug excretion in human urine at 2 mg, po single dose; settings: in vivo
[41] = Drug excretion in human feces at 2 mg, po single dose; settings: in vivo
[42] = target: Butyrylcholinesterase (Rattus norvegicus) (UniProt Q9JKC1); settings: Lister Hooded, 3 mg/kg
Butyrylcholinesterase (Rattus norvegicus), sequence (Q9JKC1 as listed by the source): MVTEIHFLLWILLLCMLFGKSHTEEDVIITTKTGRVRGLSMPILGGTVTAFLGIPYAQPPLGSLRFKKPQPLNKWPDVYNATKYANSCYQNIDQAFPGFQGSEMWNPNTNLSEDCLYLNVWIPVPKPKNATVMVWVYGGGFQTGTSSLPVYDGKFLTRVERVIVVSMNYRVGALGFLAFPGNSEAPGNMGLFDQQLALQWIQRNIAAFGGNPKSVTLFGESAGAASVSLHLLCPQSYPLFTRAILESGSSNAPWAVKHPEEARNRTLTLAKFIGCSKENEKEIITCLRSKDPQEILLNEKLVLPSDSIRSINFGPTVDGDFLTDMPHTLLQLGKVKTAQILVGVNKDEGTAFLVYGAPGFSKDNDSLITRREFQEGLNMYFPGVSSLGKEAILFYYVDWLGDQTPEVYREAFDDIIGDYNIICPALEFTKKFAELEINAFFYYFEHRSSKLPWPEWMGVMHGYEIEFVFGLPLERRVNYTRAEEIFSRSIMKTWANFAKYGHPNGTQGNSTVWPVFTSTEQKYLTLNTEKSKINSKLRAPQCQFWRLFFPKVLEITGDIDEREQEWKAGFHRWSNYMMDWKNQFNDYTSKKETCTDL
Description: Inhibition of butyrylcholinesterase activity in 7 months-old Lister Hooded rat brain at 3 mg/kg, po after 1 hr treatment

[43] = target: Butyrylcholinesterase (Rattus norvegicus) (UniProt Q9JKC1); settings: Lister Hooded, Plasma, 3 mg/kg
Description: Inhibition of butyrylcholinesterase activity in 7 months-old Lister Hooded rat plasma at 3 mg/kg, po after 1 hr treatment

Structure (SMILES) | Kp at 1 h [2] | Vd at 1 h [3] [L/kg] | half-life at 1 h [4] [h] | MRT at 1 h [5] [h] | Vd at 1 h [6] [L/kg] | half-life at 1 h [7] [h] | MRT at 1 h [8] [h] | inhibition [9] [%] | Tmax [10] [h] | half-life [11] [h] | Vd [12] [L/kg] | CL/F [13] [mL/min/kg] | bioavailability [14] [%] | AUCt/dose [16] [kg·min/L] | AUCt [17] [µM·h] | AUCt/dose [19] [kg·min/L] | AUCt [21] [µM·h] | Kp at 1 h [23] | Cmax [24] [nM] | Tmax [25] [h] | other results
COc1cc2c(cc1OC)C(=O)C(CC1CCN(Cc3ccccc3)CC1)C2.Cl (configuration not stated) [DONEPEZIL HYDROCHLORIDE] | 4.4 | 9.2 | 2.5 | 3 | 11.8 | 3.6 | 4.6 | 92.6 | 3 | 70 | 12 | 2.17 | 100 | 15.9 | 0.76 | 16.4 | 0.91 | 5.3 | 180 | 1 | Activity [1]: 18%; dose excreted [15]: 17%; AUC/dose [18]: 5.8 kg·min/L; AUC/dose [20]: 23.7 kg·min/L; AUC/dose [22]: 6.9 kg·min/L; bioavailability [26]: 36%; Cmax at 1 h [27]: 300 nM; clearance at 1 h ([28]; blood): 43 mL/min/kg; Cmax [29]: 200 nM; Tmax [30]: 1 h; bioavailability [31]: 43%; Cmax at 1 h [32]: 320 nM; clearance at 1 h ([33]; blood): 52 mL/min/kg
Br.COc1ccc2c3c1O[C@H]1C[C@@H](O)C=C[C@@]31CCN(C)C2 [GALANTAMINE HYDROBROMIDE] | 1.7 | 5 | 1.9 | 2 | 2.9 | 1.2 | 1.5 | 92.6 | 1 | 5 | 2.9 | 5.67 | 85 | 20.4 | 2.89 | 28.9 | 3.45 | 2 | 890 | 0.5 | concentration at 1 h [34]: 420 nM; concentration at 1 h [35]: 730 nM; concentration at 1 h [36]: 580 nM; concentration at 1 h [37]: 1140 nM; dose excreted [15]: 32%; AUC/dose [38]: 22.7 kg·min/L; AUC/dose [18]: 17.4 kg·min/L; AUC/dose [20]: 29.9 kg·min/L; AUC/dose [22]: 19.3 kg·min/L; bioavailability [26]: 83%; Cmax at 1 h [27]: 910 nM; clearance at 1 h ([28]; blood): 34 mL/min/kg; Cmax [29]: 1330 nM; Tmax [30]: 0.5 h; bioavailability [31]: 67%; Cmax at 1 h [32]: 590 nM; clearance at 1 h ([33]; blood): 41 mL/min/kg
Cl.Nc1c2c(nc3ccccc13)CCCC2 [TACRINE HYDROCHLORIDE] | 11 | 5.1 | 0.9 | 0.9 | 5.2 | 1.1 | 1.1 | 92.6 | 1 | 2 | 5.02 | 40.3 | 17 | 10.2 | 0.7 | 12.4 | 0.89 | 9.5 | 360 | 0.5 | concentration at 1 h [34]: 110 nM; concentration at 1 h [35]: 1240 nM; concentration at 1 h [36]: 190 nM; concentration at 1 h [37]: 1720 nM; fraction unbound [39]: 0.45; Drug excretion [40]: 57%; Drug excretion [41]: 23%; inhibition [42]: Active; inhibition [43]: Active; bioavailability [26]: 27%; Cmax at 1 h [27]: 740 nM; clearance at 1 h ([28]; in vivo): 77 mL/min/kg; Cmax [29]: 310 nM; Tmax [30]: 0.5 h; bioavailability [31]: 29%; Cmax at 1 h [32]: 700 nM; clearance at 1 h ([33]; in vivo): 93 mL/min/kg
